Data taken from patent US20160223547A1, “MARKER FOR PREDICTING METASTASIS OF BREAST CANCER” (priority 2013, published 2016).

Tests used:
FN14 = assay: Immunohistochemistry of FN14 expression in triple-negative breast carcinoma grafts treated with lenalidomide; format: in vivo; conditions: triple-negative breast carcinoma graft in immunosuppressed mice, vs carrier control, anti-FN14 immunohistochemistry
Description: Experimental tumors induced in the breast of immunosuppressed mice by implanting small biopsy fragments (2×2 mm) from patients with triple-negative breast carcinoma. An example of one of these grafts treated with lenalidomide (LND) with respect to the same graft treated with the carrier (control) is shown.
For expression studies, the immunohistochemistry technique with specific anti-FN14 antibodies (sc-27143, C-13, Santa Cruz Biotechnology) at a concentration of 1/3000 was used. Kidney and heart tissues were used as control tissues to view the expression in the cell membrane. The antigens were exposed by heating the preparations in a pressure cooker for 7 minutes in the suitable citrate buffer (Sanz et al., Am J Pathol, 179(2):564-579, 2011).
The primary antibody was diluted in the Dako diluent buffer (Dako, Glostrup, Denmark; Carpinteria, Calif.): Tris buffer, pH 7.2, 15 mmol/1 of NaN3. The LSAB peroxidase system (Dako), including biotinylated secondary antibody, followed by conjugated streptavidin, was used along with the ultraView detection kit (Ventana Benchmark XT, Roche, Tucson, Ariz.). The tumors were classified in three categories considering staining intensity: negative, weakly positive and strongly positive. Only those which are strongly positive in more than 30% of the tumor cells were considered with the overexpressed protein.

[1] = tested on: brain metastases of breast cancer induced by BRV5CA1 cells; assay: Therapeutic effect on brain metastases induced by BRV5CA1 cells, luciferase emission monitored in vivo; conditions: female Athymic Nude-Foxn1nu mice, 50 mg/kg/d on consecutive days, after a week of treatment
Experimental: The therapeutic effect of lenalidomide was analyzed by treating the brain metastases of breast cancer induced by injecting BRV5CA1 cells labeled with the luciferase gene into female Athymic Nude-Foxnlnu mice (Martinez-Aranda A., Int. J. Mol. Sci. 2013, 14(4), 8306-8327). The treatment groups N=8 (lenalidomide 50 mg/kg/d on consecutive days) and the control group, in which carrier was injected, were established. The start of the treatment was established on day 14 after the graft and treatment was maintained for 15 days until the end of the experiment. The treatment was started on day 13 after induction and progression of the growth of metastasis was monitored in vivo by quantifying luciferase emission (photons per second) (FIG. 7). After a week of treatment, the difference in growth of the metastasis between the control group and the treated group was significant.

[2] = tested on: BRV5CA1 cells (clones 424-2 and 424-8, silenced GRP94; Pool, non-silenced GRP94); assay: MTT cytotoxicity assay of taxotere on brain metastatic breast cancer cells with silenced or non-silenced GRP94; format: cell-based; conditions: clones 424-2 and 424-8 (silenced GRP94) vs pool, 1-10 ng/ml, 72 h
Experimental: To […], three sublines were used: Clones: 424-2 and 424-8 (silenced GRP94 [shGRP94]) and a Pool (non-silenced GRP94), from the metastatic variant BRV5Ca1.
For the cytotoxicity assay, each cell type was seeded in triplicate in a 96-well plate (Costar® 3596; Corning Incorporated) at a density of 6000 cells/well in 50 μL of complete medium (DMEM/F12 GIBCO® with serum). Twenty-four hours after seeding the cells, they were treated with taxotere (docetaxel >99%; LC Laboratories (www.LCLabs.com); Stock 200 mg/ml), at different concentrations in triplicate: 10-5-2.5-1 and 0 ng/ml, in a volume of 50 μL/well. Seventy-two hours after the start of the treatment, a cell viability assay MTT was carried out in which survival expressed as a percentage (%) was analyzed (FIG. 2). […]
After this time, the medium was removed from the wells and 50 μL of MTT [3-(4,5-dimethylthiazol-2-yl)-2,5-diphenyltetrazolium bromide; Sigma-Aldrich) were added per well, at a concentration of 5 mg MTT/ml of medium without serum. […] It was left to stir for 10-15 minutes (in the dark) and was then analyzed in the microplate spectrophotometer (PowerWave™ XS; BioTek) at a wavelength of 540 nm.
Absorbance values (OD) were obtained in triplicate for each of the treatment concentrations established. The calculated mean was expressed in reference to the control thereof (0 ng/ml), considered as the maximum survival value (100%).

[3] = tested on: xenotransplant of breast cancer metastasizing to the brain; assay: Effect of taxotere on growth of intramammary xenografts; format: in vivo; conditions: Athymic Nude-Foxn1nu mice, 15 mg/kg/day every 4 days for two weeks, vs carrier control, p=0.003
Experimental: A xenotransplant of breast cancer metastasizing to the brain provided by Dr. Eva Gonzalez was used to induce breast tumors in immunosuppressed Athymic Nude-Foxnlnu mice weighing 22-28 grams acquired from Charles-River Laboratories (Wilmington, Mass.) and to establish groups that are treated or not treated with taxotere following a previously established standard protocol of 15 mg/kg/day every 4 days for two weeks (Bin Gu et al., Carcinogenesis, 2004). The 2 mm^3 tumor fragment was implanted in the inguinal breast of female mice and 10 days were waited out for the graft to progress. After evaluating the volume of the tumor, treatment with taxotere was started, considering in each case a control group which was treated with the drug carrier.

Structure (SMILES) | expression of FN14 in tumor graft (FN14) | difference in growth of the metastasis between control group and treated group (luciferase emission, photons per second) [1] | survival of cells after treatment (percentage of survival with respect to the control) [2] | tumor growth (normalized volume divided by the initial volume) [3]
Nc1cccc2c1CN(C1CCC(=O)NC1=O)C2=O (centres unmarked) [lenalidomide] | inhibition of the expression of FN14 | significant |  | 
CC(=O)O[C@H]1C(=O)[C@@]2(C)[C@H]([C@H](OC(=O)c3ccccc3)[C@]3(O)C[C@H](OC(=O)[C@H](O)[C@@H](NC(=O)c4ccccc4)c4ccccc4)C(C)=C1C3(C)C)[C@]1(OC(C)=O)CO[C@@H]1C[C@@H]2O [taxol, 11-methano-5H-cyclodeca[3,4]benz[1,2-b]oxete benzenepropanoic acid deriv.] |  |  | lower survival | 
CC(=O)O[C@@]12CO[C@@H]1C[C@H](O)[C@@]1(C)C(=O)[C@H](O)C3=C(C)[C@@H](OC(=O)[C@H](O)[C@@H](NC(=O)OC(C)(C)C)c4ccccc4)C[C@@](O)([C@@H](OC(=O)c4ccccc4)[C@H]21)C3(C)C [taxotere, N-debenzoyl-N-tert-butoxycarbonyl-10-deacetyl taxol] |  |  | significantly reduces the survival | tendency to grow less than that of the control
